Laboratory results published in ChEMBL document CHEMBL1133366, “Synthesis and structure-activity relationships of 3-cyano-4-(phenoxyanilino)quinolines as MEK (MAPKK) inhibitors” (Bioorg Med Chem Lett, 2000).

What was measured:
[1] = molecular target: T1, Serine/threonine-protein kinase RAF and Dual specificity mitogen-activated protein kinase kinase 1 (Raf/MEK) (Homo sapiens, UniProt P04049+Q02750); test: Inhibition of ERK-phosphorylation by Raf-MEK-ERK in coupled ELISA; format: protein assay
[2] = molecular target: Dual specificity mitogen-activated protein kinase kinase 1 (Homo sapiens, UniProt Q02750); test: Inhibition of ERK-phosphorylation by MEK-ERK in direct ELISA
[3] = test system: LoVo; test: Inhibition of LoVo human colon tumor cell proliferation
[4] = test system: SW-620; test: Inhibition of SW620 human colon tumor cell proliferation
[5] = test system: COLO 205; test: cells; conditions: Homo sapiens
Description: Inhibition of COLO 205 human colon tumor cell proliferation

[6] = molecular target: T1, Serine/threonine-protein kinase RAF and Dual specificity mitogen-activated protein kinase kinase 1 (Raf/MEK); test: Inhibition of ERK phosphorylation in coupled Raf-MEK-ERK ELISA (Weakly active); format: protein assay

Chain of Dual specificity mitogen-activated protein kinase kinase 1 (Q02750 whole entry): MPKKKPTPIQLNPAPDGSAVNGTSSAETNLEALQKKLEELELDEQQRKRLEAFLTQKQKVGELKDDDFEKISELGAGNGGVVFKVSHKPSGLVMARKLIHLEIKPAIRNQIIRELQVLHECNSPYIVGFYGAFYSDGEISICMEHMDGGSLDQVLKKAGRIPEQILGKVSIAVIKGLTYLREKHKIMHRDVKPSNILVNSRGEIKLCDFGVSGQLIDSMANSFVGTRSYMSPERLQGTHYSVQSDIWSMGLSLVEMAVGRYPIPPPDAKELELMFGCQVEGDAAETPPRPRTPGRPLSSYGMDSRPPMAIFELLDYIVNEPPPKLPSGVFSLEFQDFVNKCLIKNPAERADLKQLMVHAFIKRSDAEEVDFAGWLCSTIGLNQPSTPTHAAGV

SMILES	IC50 [1] [nM]	IC50 [2] [nM]	IC50 [3] [nM]	IC50 [4] [nM]	IC50 [5] [nM]	IC50 [6] [nM]
COc1cc2ncc(C#N)c(Nc3ccccc3Oc3ccccc3)c2cc1OC	> 10000	> 10000	–	–	–	–
COc1cc2c(Nc3ccc(Oc4ccccc4)cc3)c(C#N)cnc2cc1OCCCN1CCOCC1	2.4	7	190	380	360	–
COc1cc2ncnc(Nc3ccc(Oc4ccccc4)cc3)c2cc1OC	–	–	–	–	–	> 100000
COc1cc2c(Nc3ccc(Oc4ccccc4)cc3)c(C#N)cnc2cc1OCCN1CCOCC1	–	–	250	700	630	–

More lines, now with the values ahead:

IC50 [1] [nM]	IC50 [2] [nM]	IC50 [3] [nM]	IC50 [4] [nM]	IC50 [5] [nM]	IC50 [6] [nM]	SMILES
–	–	630	1500	1430	–	COc1cc2ncc(C#N)c(Nc3ccc(Oc4ccccc4)cc3)c2cc1OC
> 10000	> 10000	–	–	–	–	COc1ccc(OC)c2c(Nc3ccc(Oc4ccccc4)cc3)c(C#N)cnc12
> 10000	> 10000	–	–	–	–	COc1cccc2c(Nc3ccc(Oc4ccccc4)cc3)c(C#N)cnc12
> 10000	> 10000	–	–	–	–	COc1cc2c(Nc3ccc(Oc4ccccc4)cc3)c(C#N)cnc2c(OC)c1OC
